Data: ChEMBL document CHEMBL1201862, “PubChem BioAssay data set” (2004)
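Cultured in 96-well plates, cells were exposed to test compound for 48 hours across five concentrations. Abbreviation: GI50, concentration required for 50% inhibition of growth.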 The source made the active and inactive calls. No stated cut-off is given here; in the data, active = GI50 up to about 1.1 µM and inactive = higher.

How the values were obtained:
Experiment in all cases: NCI-60 cell line screen, 48 h
[1] = system: COLO 205
[2] = system: CCRF-CEM
[3] = system: EKVX
[4] = system: RPMI-8226
[5] = system: SW-620
[6] = system: OVCAR-8
[7] = system: OVCAR-4
[8] = system: SF-539
[9] = system: A498
[10] = system: LXFL 529
[11] = system: OVCAR-3
[12] = system: KM12
[13] = system: A549
[14] = system: LOX IMVI
[15] = system: K562
[16] = system: 786-0
[17] = system: SK-MEL-5
[18] = system: BT-549
[19] = system: SNB-75
[20] = system: NCI/ADR-RES

Row | SMILES | GI50 [1] | GI50 [2] | GI50 [3] | GI50 [4] | GI50 [5] | GI50 [6] | GI50 [7] | GI50 [8] | GI50 [9] | GI50 [10] | GI50 [11] | GI50 [12] | GI50 [13] | GI50 [14] | GI50 [15] | GI50 [16] | GI50 [17] | GI50 [18] | GI50 [19] | GI50 [20]
1 | COC(=O)/C=C(C)/C=C/c1c(C)c(C(C)=O)c(C)n1C | > 100 µM (inactive) | > 100 µM (inactive) | 88.5 µM (inactive) | 57.7 µM (inactive) | > 100 µM (inactive) | > 100 µM (inactive) | 80.9 µM (inactive) | > 100 µM (inactive) | > 100 µM (inactive) | 88.3 µM (inactive) | > 100 µM (inactive) | > 100 µM (inactive) | > 100 µM (inactive) | > 100 µM (inactive) | 32.1 µM (inactive) | > 100 µM (inactive) | – | – | – | –
2 | CC(=O)O[C@H]1C=CC23OC(=O)[C@]1(C)[C@H]2[C@H](C(=O)O)C12CC(=O)[C@@](CO)(CC[C@H]13)C2 | > 100 µM (inactive) | > 100 µM (inactive) | > 100 µM (inactive) | > 100 µM (inactive) | > 100 µM (inactive) | > 100 µM (inactive) | > 100 µM (inactive) | > 100 µM (inactive) | – | > 100 µM (inactive) | > 100 µM (inactive) | > 100 µM (inactive) | > 100 µM (inactive) | > 100 µM (inactive) | > 100 µM (inactive) | > 100 µM (inactive) | > 100 µM (inactive) | – | – | –
3 | COc1cc(C(O)C(=O)c2nc3ccc([N+](=O)[O-])cc3nc2O)ccc1O (stereo unspecified) | > 100 µM (inactive) | 40.7 µM (inactive) | 90.6 µM (inactive) | 77.3 µM (inactive) | > 100 µM (inactive) | > 100 µM (inactive) | > 100 µM (inactive) | 58.1 µM (inactive) | 34.6 µM (inactive) | 35.8 µM (inactive) | > 100 µM (inactive) | > 100 µM (inactive) | 98.9 µM (inactive) | 40.1 µM (inactive) | 57.1 µM (inactive) | > 100 µM (inactive) | 81.1 µM (inactive) | – | – | –
4 | CC(NNC(=O)c1ccncc1)c1ccc(Cl)c(Cl)c1 (stereo unspecified) | > 100 µM (inactive) | 43.4 µM (inactive) | > 100 µM (inactive) | 75.5 µM (inactive) | > 100 µM (inactive) | > 100 µM (inactive) | > 100 µM (inactive) | > 100 µM (inactive) | 69.3 µM (inactive) | – | > 100 µM (inactive) | > 100 µM (inactive) | > 100 µM (inactive) | > 100 µM (inactive) | 38.4 µM (inactive) | > 100 µM (inactive) | > 100 µM (inactive) | > 100 µM (inactive) | > 100 µM (inactive) | > 100 µM (inactive)
5 | CCOC(=O)/C=C/CCO[Si](C)(C)C(C)(C)C | > 100 µM (inactive) | > 100 µM (inactive) | > 100 µM (inactive) | > 100 µM (inactive) | > 100 µM (inactive) | > 100 µM (inactive) | > 100 µM (inactive) | > 100 µM (inactive) | > 100 µM (inactive) | – | > 100 µM (inactive) | > 100 µM (inactive) | > 100 µM (inactive) | 50.5 µM (inactive) | > 100 µM (inactive) | > 100 µM (inactive) | > 100 µM (inactive) | > 100 µM (inactive) | 82.8 µM (inactive) | > 100 µM (inactive)
6 | CN1C(=O)C(=CNc2ccccc2Cl)C(=O)N(C)C1=O | > 100 µM (inactive) | 14.6 µM (inactive) | > 100 µM (inactive) | 16.9 µM (inactive) | > 100 µM (inactive) | > 100 µM (inactive) | 18.3 µM (inactive) | 20.6 µM (inactive) | > 100 µM (inactive) | – | 15.2 µM (inactive) | > 100 µM (inactive) | 21.7 µM (inactive) | 15.3 µM (inactive) | 22.2 µM (inactive) | 18.5 µM (inactive) | > 100 µM (inactive) | > 100 µM (inactive) | > 100 µM (inactive) | > 100 µM (inactive)
7 | CNC1C(OC2C(OC3C(O)C(O)C(O)C(O)C3O)OC(C)C2(O)CO)OC(CO)C(O)C1O.N=C(N)N.NC(=O)O (stereo unspecified) | > 100 µM (inactive) | > 100 µM (inactive) | > 100 µM (inactive) | > 100 µM (inactive) | > 100 µM (inactive) | > 100 µM (inactive) | > 100 µM (inactive) | > 100 µM (inactive) | > 100 µM (inactive) | – | > 100 µM (inactive) | > 100 µM (inactive) | > 100 µM (inactive) | > 100 µM (inactive) | > 100 µM (inactive) | > 100 µM (inactive) | > 100 µM (inactive) | > 100 µM (inactive) | > 100 µM (inactive) | > 100 µM (inactive)
8 | O=C(/C=C/c1ccc(OCCCOc2ccc(/C=C/C(=O)c3ccc(Cl)cc3)cc2)cc1)c1ccc(Cl)cc1 | > 100 µM (inactive) | > 100 µM (inactive) | > 100 µM (inactive) | > 100 µM (inactive) | > 100 µM (inactive) | > 100 µM (inactive) | > 100 µM (inactive) | > 100 µM (inactive) | – | > 100 µM (inactive) | > 100 µM (inactive) | > 100 µM (inactive) | > 100 µM (inactive) | > 100 µM (inactive) | > 100 µM (inactive) | > 100 µM (inactive) | > 100 µM (inactive) | – | 34.6 µM (inactive) | –
9 | C=C1CC[C@@H]2[C@](C)(COC(=O)CCC(=O)O)CCC[C@@]2(C)[C@@H]1CCC1=CC(=O)OC1 | > 100 µM (inactive) | > 100 µM (inactive) | > 100 µM (inactive) | > 100 µM (inactive) | > 100 µM (inactive) | > 100 µM (inactive) | > 100 µM (inactive) | > 100 µM (inactive) | > 100 µM (inactive) | – | > 100 µM (inactive) | > 100 µM (inactive) | > 100 µM (inactive) | > 100 µM (inactive) | > 100 µM (inactive) | > 100 µM (inactive) | 42.9 µM (inactive) | > 100 µM (inactive) | > 100 µM (inactive) | > 100 µM (inactive)
10 | COc1ccc(-c2sc(Br)c3c2C(=O)C2OC(=O)NC32)cc1OC (stereo unspecified) | > 100 µM (inactive) | > 100 µM (inactive) | > 100 µM (inactive) | > 100 µM (inactive) | > 100 µM (inactive) | > 100 µM (inactive) | > 100 µM (inactive) | > 100 µM (inactive) | > 100 µM (inactive) | – | > 100 µM (inactive) | > 100 µM (inactive) | > 100 µM (inactive) | 45.2 µM (inactive) | > 100 µM (inactive) | > 100 µM (inactive) | > 100 µM (inactive) | > 100 µM (inactive) | > 100 µM (inactive) | > 100 µM (inactive)
11 | [N-]=[N+]=N/C1=C/CCCCC(=O)C1 | > 100 µM (inactive) | > 100 µM (inactive) | > 100 µM (inactive) | > 100 µM (inactive) | > 100 µM (inactive) | > 100 µM (inactive) | > 100 µM (inactive) | – | – | > 100 µM (inactive) | – | – | > 100 µM (inactive) | > 100 µM (inactive) | > 100 µM (inactive) | > 100 µM (inactive) | > 100 µM (inactive) | – | > 100 µM (inactive) | –
12 | O=C1c2ccccc2-c2nnc3c(c21)Cc1ccccc1C3 | > 10 µM (inactive) | > 10 µM (inactive) | > 10 µM (inactive) | > 10 µM (inactive) | > 10 µM (inactive) | > 10 µM (inactive) | > 10 µM (inactive) | > 10 µM (inactive) | > 10 µM (inactive) | – | > 10 µM (inactive) | > 10 µM (inactive) | > 10 µM (inactive) | > 10 µM (inactive) | > 10 µM (inactive) | > 10 µM (inactive) | > 10 µM (inactive) | > 10 µM (inactive) | 2.43 µM (inactive) | > 10 µM (inactive)
13 | COC1CC(O[C@H]2CC[C@@]3(C)[C@@H](CC[C@]4(O)[C@@H]3CC[C@]3(C)[C@@H](C(C)=O)[C@H](OC(=O)CC(C)C)[C@@H](OC(=O)c5ccccc5)[C@@]34O)C2)OC(C)C1OC1CC(OC)C(OC2OC(C)C(O)C(OC)C2O)C(C)O1 (stereo partly specified) | 5.13 µM (inactive) | 17.8 µM (inactive) | 9.68 µM (inactive) | 6.12 µM (inactive) | > 25 µM (inactive) | 20 µM (inactive) | 19.1 µM (inactive) | > 25 µM (inactive) | > 25 µM (inactive) | – | 11.8 µM (inactive) | 12.9 µM (inactive) | 7.89 µM (inactive) | 15.9 µM (inactive) | 11 µM (inactive) | > 25 µM (inactive) | 17.8 µM (inactive) | > 25 µM (inactive) | 11.9 µM (inactive) | 19.9 µM (inactive)
14 | Nc1ccn(CCNCCn2cnc3nc(N)[nH]c(=O)c32)c(=O)n1 | > 100 µM (inactive) | – | > 100 µM (inactive) | > 100 µM (inactive) | > 100 µM (inactive) | > 100 µM (inactive) | > 100 µM (inactive) | > 100 µM (inactive) | > 100 µM (inactive) | > 100 µM (inactive) | > 100 µM (inactive) | > 100 µM (inactive) | > 100 µM (inactive) | > 100 µM (inactive) | > 100 µM (inactive) | > 100 µM (inactive) | – | – | – | –
15 | Cc1cc(O)c2c(c1)C(=O)C=C(Br)C2=O | 6.32 µM (inactive) | 0.255 µM (active) | 24.8 µM (inactive) | 6.75 µM (inactive) | 3.42 µM (inactive) | 19.6 µM (inactive) | 11.8 µM (inactive) | 16 µM (inactive) | 18.9 µM (inactive) | – | 16.7 µM (inactive) | 27.2 µM (inactive) | 30.3 µM (inactive) | 12.8 µM (inactive) | 0.807 µM (active) | 17.5 µM (inactive) | 14.4 µM (inactive) | 16.9 µM (inactive) | 16.8 µM (inactive) | 19.2 µM (inactive)
